# Data: PubChem BioAssay (NCI)
#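 Assay format: 96-well plates, 48-hour exposure. GI50 is the concentration that inhibits growth by half. TGI is the concentration that stops growth completely.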
# Tests used:
# Experiment in all cases: NCI anticancer screen, dose series, 48 h
# 786-0 renal = test system: 786-0 renal
# A498 renal = test system: A498 renal
# A549 NSCLC = test system: A549 NSCLC
# ACHN renal = test system: ACHN renal
# BT-549 breast = test system: BT-549 breast
# CCRF-CEM leukemia = test system: CCRF-CEM leukemia
# COLO 205 colon = test system: COLO 205 colon
# DU-145 prostate = test system: DU-145 prostate
# EKVX NSCLC = test system: EKVX NSCLC
# HCC-2998 colon = test system: HCC-2998 colon
# HCT-15 colon = test system: HCT-15 colon
# HL-60(TB) leukemia = test system: HL-60(TB) leukemia
# HOP-62 NSCLC = test system: HOP-62 NSCLC
# HOP-92 NSCLC = test system: HOP-92 NSCLC
# HS 578T breast = test system: HS 578T breast
# IGROV1 ovarian = test system: IGROV1 ovarian
# K-562 leukemia = test system: K-562 leukemia
# LOX IMVI melanoma = test system: LOX IMVI melanoma
# M14 melanoma = test system: M14 melanoma
# MDA-MB-231 breast = test system: MDA-MB-231 breast
# MDA-MB-435 = test system: MDA-MB-435
# MOLT-4 leukemia = test system: MOLT-4 leukemia
# NCI-H226 lung = test system: NCI-H226 lung
# NCI-H23 lung = test system: NCI-H23 lung
# NCI-H522 lung = test system: NCI-H522 lung
# NCI/ADR-RES ovarian = test system: NCI/ADR-RES ovarian
# OVCAR-3 ovarian = test system: OVCAR-3 ovarian
# OVCAR-4 ovarian = test system: OVCAR-4 ovarian
# OVCAR-5 ovarian = test system: OVCAR-5 ovarian
# OVCAR-8 ovarian = test system: OVCAR-8 ovarian
# PC-3 prostate = test system: PC-3 prostate
# RXF 393 renal = test system: RXF 393 renal
# SF-268 CNS = test system: SF-268 CNS
# SF-295 CNS = test system: SF-295 CNS
# SK-MEL-2 melanoma = test system: SK-MEL-2 melanoma
# SK-MEL-28 melanoma = test system: SK-MEL-28 melanoma
# SK-OV-3 ovarian = test system: SK-OV-3 ovarian
# SN12C renal = test system: SN12C renal
# SNB-19 CNS = test system: SNB-19 CNS
# SR leukemia = test system: SR leukemia
# T-47D breast = test system: T-47D breast
# TK-10 renal = test system: TK-10 renal
# U251 CNS = test system: U251 CNS
# UACC-257 melanoma = test system: UACC-257 melanoma
# UACC-62 melanoma = test system: UACC-62 melanoma
# UO-31 renal = test system: UO-31 renal
# HCT-116 colon = test system: HCT-116 colon
# KM12 colon = test system: KM12 colon
# MALME-3M melanoma = test system: MALME-3M melanoma
# MCF7 breast = test system: MCF7 breast
# NCI-H460 lung = test system: NCI-H460 lung
# RPMI-8226 leukemia = test system: RPMI-8226 leukemia
# SF-539 CNS = test system: SF-539 CNS
# SK-MEL-5 melanoma = test system: SK-MEL-5 melanoma
# SNB-75 CNS = test system: SNB-75 CNS
# SW-620 colon = test system: SW-620 colon
smiles,measurement,setting,value
O=C1c2cccc(NCCN=Cc3cc(O)ccc3O)c2C(=O)c2c(NCCN=Cc3cc(O)ccc3O)cccc21,GI50,786-0 renal,1.88 µM
same,TGI,786-0 renal,4.69 µM
same,GI50,A498 renal,1.41 µM
same,TGI,A498 renal,3.1 µM
same,GI50,A549 NSCLC,1.51 µM
same,TGI,A549 NSCLC,4.24 µM
same,GI50,ACHN renal,2.05 µM
same,TGI,ACHN renal,8.93 µM
same,GI50,BT-549 breast,1.89 µM
same,TGI,BT-549 breast,7.77 µM
same,GI50,CCRF-CEM leukemia,0.351 µM
same,TGI,CCRF-CEM leukemia,1.63 µM
same,GI50,COLO 205 colon,0.495 µM
same,TGI,COLO 205 colon,1.94 µM
same,GI50,DU-145 prostate,1.39 µM
same,TGI,DU-145 prostate,5.43 µM
same,GI50,EKVX NSCLC,1.8 µM
same,TGI,EKVX NSCLC,5.77 µM
same,GI50,HCC-2998 colon,1.39 µM
same,TGI,HCC-2998 colon,2.93 µM
same,GI50,HCT-15 colon,2.84 µM
same,TGI,HCT-15 colon,10.5 µM
same,GI50,HL-60(TB) leukemia,1.63 µM
same,TGI,HL-60(TB) leukemia,4.19 µM
same,GI50,HOP-62 NSCLC,1.28 µM
same,TGI,HOP-62 NSCLC,4.06 µM
same,GI50,HOP-92 NSCLC,1.29 µM
same,TGI,HOP-92 NSCLC,4.87 µM
same,GI50,HS 578T breast,1.03 µM
same,TGI,HS 578T breast,3.78 µM
same,GI50,IGROV1 ovarian,1.19 µM
same,TGI,IGROV1 ovarian,4.59 µM
same,GI50,K-562 leukemia,1.45 µM
same,TGI,K-562 leukemia,3.9 µM
same,GI50,LOX IMVI melanoma,0.762 µM
same,TGI,LOX IMVI melanoma,2.25 µM
same,GI50,M14 melanoma,2.01 µM
same,TGI,M14 melanoma,4.59 µM
same,GI50,MDA-MB-231 breast,0.877 µM
same,TGI,MDA-MB-231 breast,2.25 µM
same,GI50,MDA-MB-435,1.53 µM
same,TGI,MDA-MB-435,3.08 µM
same,GI50,MOLT-4 leukemia,0.319 µM
same,TGI,MOLT-4 leukemia,1.46 µM
same,GI50,NCI-H226 lung,1.21 µM
same,TGI,NCI-H226 lung,3.62 µM
same,GI50,NCI-H23 lung,1.44 µM
same,TGI,NCI-H23 lung,3.49 µM
same,GI50,NCI-H522 lung,1.33 µM
same,TGI,NCI-H522 lung,3.24 µM
same,GI50,NCI/ADR-RES ovarian,13.4 µM
same,TGI,NCI/ADR-RES ovarian,35.9 µM
same,GI50,OVCAR-3 ovarian,1.63 µM
same,TGI,OVCAR-3 ovarian,4.28 µM
same,GI50,OVCAR-4 ovarian,0.573 µM
same,TGI,OVCAR-4 ovarian,2.64 µM
same,GI50,OVCAR-5 ovarian,2.12 µM
same,TGI,OVCAR-5 ovarian,5.14 µM
same,GI50,OVCAR-8 ovarian,0.884 µM
same,TGI,OVCAR-8 ovarian,3.21 µM
same,GI50,PC-3 prostate,1.17 µM
same,TGI,PC-3 prostate,3.97 µM
same,GI50,RXF 393 renal,1.43 µM
same,TGI,RXF 393 renal,2.96 µM
same,GI50,SF-268 CNS,0.776 µM
same,TGI,SF-268 CNS,3.25 µM
same,GI50,SF-295 CNS,1.36 µM
same,TGI,SF-295 CNS,4.24 µM
same,GI50,SK-MEL-2 melanoma,2.02 µM
same,TGI,SK-MEL-2 melanoma,3.91 µM
same,GI50,SK-MEL-28 melanoma,1.77 µM
same,TGI,SK-MEL-28 melanoma,3.66 µM
same,GI50,SK-OV-3 ovarian,2.34 µM
same,TGI,SK-OV-3 ovarian,7.63 µM
same,GI50,SN12C renal,0.737 µM
same,TGI,SN12C renal,3.9 µM
same,GI50,SNB-19 CNS,1.55 µM
same,TGI,SNB-19 CNS,5.1 µM
same,GI50,SR leukemia,0.601 µM
same,TGI,SR leukemia,3.1 µM
same,GI50,T-47D breast,2.35 µM
same,TGI,T-47D breast,7.35 µM
same,GI50,TK-10 renal,2.21 µM
same,TGI,TK-10 renal,5.8 µM
same,GI50,U251 CNS,0.739 µM
same,TGI,U251 CNS,2.56 µM
same,GI50,UACC-257 melanoma,3.1 µM
same,TGI,UACC-257 melanoma,10.8 µM
same,GI50,UACC-62 melanoma,1.68 µM
same,TGI,UACC-62 melanoma,3.57 µM
same,GI50,UO-31 renal,1.71 µM
same,TGI,UO-31 renal,6.13 µM
COc1ccc2c(c1)c(-c1nc(-c3cn(C)c4ncccc34)cs1)cn2CCCN1CCCCC1,GI50,786-0 renal,1.59 µM
same,TGI,786-0 renal,2.95 µM
same,GI50,A498 renal,2.4 µM
same,TGI,A498 renal,6.22 µM
same,GI50,A549 NSCLC,1.87 µM
same,TGI,A549 NSCLC,3.46 µM
same,GI50,ACHN renal,1.69 µM
same,TGI,ACHN renal,3.06 µM
same,GI50,BT-549 breast,4.91 µM
same,TGI,BT-549 breast,19.5 µM
same,GI50,CCRF-CEM leukemia,2.05 µM
same,TGI,CCRF-CEM leukemia,4.04 µM
same,GI50,DU-145 prostate,1.62 µM
same,TGI,DU-145 prostate,2.98 µM
same,GI50,EKVX NSCLC,1.67 µM
same,TGI,EKVX NSCLC,3.17 µM
same,GI50,HCC-2998 colon,1.56 µM
same,TGI,HCC-2998 colon,3.06 µM
same,GI50,HCT-116 colon,1.68 µM
same,TGI,HCT-116 colon,3.05 µM
same,GI50,HCT-15 colon,1.53 µM
same,TGI,HCT-15 colon,2.96 µM
same,GI50,HL-60(TB) leukemia,1.81 µM
same,TGI,HL-60(TB) leukemia,3.62 µM
same,GI50,HOP-92 NSCLC,1.67 µM
same,TGI,HOP-92 NSCLC,3.24 µM
same,GI50,HS 578T breast,2.24 µM
same,TGI,HS 578T breast,5.8 µM
same,GI50,IGROV1 ovarian,1.74 µM
same,TGI,IGROV1 ovarian,3.46 µM
same,GI50,K-562 leukemia,1.64 µM
same,TGI,K-562 leukemia,3.4 µM
same,GI50,KM12 colon,1.78 µM
same,TGI,KM12 colon,3.45 µM
same,GI50,LOX IMVI melanoma,1.65 µM
same,TGI,LOX IMVI melanoma,3.09 µM
same,GI50,M14 melanoma,1.65 µM
same,TGI,M14 melanoma,3.11 µM
same,GI50,MALME-3M melanoma,1.64 µM
same,TGI,MALME-3M melanoma,3.25 µM
same,GI50,MCF7 breast,1.7 µM
same,TGI,MCF7 breast,3.32 µM
same,GI50,MDA-MB-231 breast,1.78 µM
same,TGI,MDA-MB-231 breast,3.37 µM
same,GI50,MDA-MB-435,1.63 µM
same,TGI,MDA-MB-435,3.03 µM
same,GI50,MOLT-4 leukemia,1.71 µM
same,TGI,MOLT-4 leukemia,3.36 µM
same,GI50,NCI-H23 lung,1.81 µM
same,TGI,NCI-H23 lung,3.49 µM
same,GI50,NCI-H460 lung,1.95 µM
same,TGI,NCI-H460 lung,3.7 µM
same,GI50,NCI-H522 lung,1.68 µM
same,TGI,NCI-H522 lung,3.37 µM
same,GI50,NCI/ADR-RES ovarian,1.76 µM
same,TGI,NCI/ADR-RES ovarian,3.46 µM
same,GI50,OVCAR-3 ovarian,1.59 µM
same,TGI,OVCAR-3 ovarian,3.02 µM
same,GI50,OVCAR-4 ovarian,1.87 µM
same,TGI,OVCAR-4 ovarian,4.64 µM
same,GI50,OVCAR-5 ovarian,1.64 µM
same,TGI,OVCAR-5 ovarian,3.25 µM
same,GI50,PC-3 prostate,1.76 µM
same,TGI,PC-3 prostate,3.27 µM
same,GI50,RPMI-8226 leukemia,2.19 µM
same,TGI,RPMI-8226 leukemia,4.64 µM
same,GI50,RXF 393 renal,1.68 µM
same,TGI,RXF 393 renal,3.29 µM
same,GI50,SF-268 CNS,1.6 µM
same,TGI,SF-268 CNS,3.21 µM
same,GI50,SF-295 CNS,1.71 µM
same,TGI,SF-295 CNS,3.18 µM
same,GI50,SF-539 CNS,1.75 µM
same,TGI,SF-539 CNS,3.22 µM
same,GI50,SK-MEL-2 melanoma,2.07 µM
same,TGI,SK-MEL-2 melanoma,4.46 µM
same,GI50,SK-MEL-28 melanoma,1.76 µM
same,TGI,SK-MEL-28 melanoma,3.29 µM
same,GI50,SK-MEL-5 melanoma,1.79 µM
same,TGI,SK-MEL-5 melanoma,3.25 µM
same,GI50,SK-OV-3 ovarian,1.83 µM
same,TGI,SK-OV-3 ovarian,3.53 µM
same,GI50,SN12C renal,1.71 µM
same,TGI,SN12C renal,3.17 µM
same,GI50,SNB-19 CNS,1.9 µM
same,TGI,SNB-19 CNS,3.52 µM
same,GI50,SNB-75 CNS,1.34 µM
same,TGI,SNB-75 CNS,2.72 µM
same,GI50,SR leukemia,1.81 µM
same,TGI,SR leukemia,3.77 µM
same,GI50,SW-620 colon,1.9 µM
same,TGI,SW-620 colon,3.63 µM
same,GI50,T-47D breast,1.83 µM
same,TGI,T-47D breast,4.28 µM
same,GI50,TK-10 renal,1.64 µM
same,TGI,TK-10 renal,3.1 µM
same,GI50,U251 CNS,1.81 µM
same,TGI,U251 CNS,3.23 µM
same,GI50,UACC-257 melanoma,1.92 µM
same,TGI,UACC-257 melanoma,3.66 µM
same,GI50,UACC-62 melanoma,1.76 µM
same,TGI,UACC-62 melanoma,3.2 µM
same,GI50,UO-31 renal,1.51 µM
same,TGI,UO-31 renal,2.87 µM
